Experimental data as given in EPA's ToxValDB 9.5.
Values after ≈ are worked out from the molar mass of the structure shown. Values joined by “and” are separate entries in the source; they are usually repeats but may differ in a detail not shown here. Equal entries are not always repeated. Blank lines part the entries; values can stand above or below the molecule they belong to.

Experiments:
[1] = system: Apis mellifera; conditions: acute, mortality
[2] = system: Sus scrofa; conditions: oral
[3] = system: Gallus gallus
[4] = system: Homo sapiens; conditions: clinical; for LEL: no effects
[5] = system: Canidae; conditions: Beagle; for NOAEL: chronic, oral, diet, M/F, clinical chemistry
[6] = system: Rattus norvegicus; conditions: for LD50: acute, mortality; for LD50 / NOAEL: oral
[7] = system: Oncorhynchus mykiss; conditions: acute; duration: 96 hours; mortality
[8] = system: Colinus virginianus; conditions: acute; oral; mortality
[9] = system: Pontoscolex corethrurus; conditions: acute; mortality
[10] = system: Daphnia magna; conditions: acute; mortality
[11] = system: Mus musculus; conditions: oral

SMILES: CN/C(=N\[N+](=O)[O-])NCc1cnc(Cl)s1 [Clothianidin]
LD50 ([1]; dermal): 0.0275 µg/piece and 0.0258 µg/piece
LD50 ([1]; duration: 48 hours, dermal): 0.0275 µg/piece
LD50 ([1]; duration: 48 hours, oral, unspecified): 0.00379 µg/piece
LD50 ([1]; oral, unspecified): 0.00379 µg/piece

SMILES: CC(=O)OC[C@]12CCC(C)=C[C@H]1O[C@@H]1[C@H](O)[C@@H](OC(C)=O)[C@@]2(C)[C@]12CO2 [Diacetoxyscirpenol]
LOAEL ([2]; short-term, gavage, Not specified, histopathology: neoplastic): 0.08 mg/kg-day
LOAEL ([3]; subchronic, duration: 35 days, M, Chicken, histopathology: neoplastic): 0.01 mg/kg-day
NOAEL ([4]; injection, intravenous, hematological): 0.065 mg/kg-day
NOAEL ([4]; injection, intravenous, other): 0.032 mg/kg-day
LOAEL ([5]; acute, injection, intravenous, hematological): 0.031 mg/kg-day

SMILES: CC(C)=CCC/C(C)=C/CO [(2E)-3,7-Dimethyl-2,6-octadien-1-ol]
LD50 [6]: 3600 mg/kg-day
LC50 [7]: 11.6 µg/mL (≈ 75.2 µM)

LEL ([3]; subchronic, duration: 35 days, oral, diet, no effects): 1920 mg/kg-day
SMILES: [Cl-].[Mn+2].[Mn+2].[OH-].[OH-].[OH-] [Manganese chloride hydroxide (Mn2Cl(OH)3)]

LEL ([2]; subchronic, duration: 6 weeks, diet, M/F, Large White x Landrace, clinical chemistry): 10000 mg/kg-day
LEL ([4]; duration: 3 months, oral): 4000 mg/day
LEL ([4]; duration: 6 months, oral): 4000 mg/day
SMILES: C[N+](C)(C)CC(=O)[O-] [Betaine]

LEL ([3]; chronic, duration: 16 weeks, oral, diet, no effects): 390 mg/kg-day
LEL ([3]; short-term, duration: 21 days, oral, diet, M/F, food consumption): 600 mg/kg-day
LEL ([3]; short-term, duration: 21 days, oral, diet, clinical chemistry): 450 mg/kg-day and 300 mg/kg-day
SMILES: [Cl-].[Cu+2].[Cu+2].[OH-].[OH-].[OH-] [Dicopper chloride trihydroxide]

SMILES: CC1=CC(=O)CC(C)(C)[C@@]1(O)/C=C/C(C)=C\C(=O)O [(+)-(S)-Abscisic acid]
LD50 [6]: > 5000 mg/kg-day
NOAEC ([6]; reproduction developmental, no effects): ≥ 1360 mg/kg-day
LD50 [8]: > 2250 mg/kg-day

SMILES: O=C1OC2(c3ccccc31)c1cc(I)c([O-])c(I)c1Oc1c2cc(I)c([O-])c1I.[Na+].[Na+] [FD&C Red 3]
NOAEL ([6]; repeat dose other, diet, other): 125 mg/kg-day
NOAEL ([4]; duration: 14 days, oral, capsule, M, clinical chemistry): 1 mg/kg-day
NOAEL ([5]; duration: 2 years): 10000 mg/kg-day

SMILES: CC(=O)CCc1ccc(O)cc1 [4-(4-Hydroxyphenyl)butan-2-one]
NOAEL (subchronic, duration: 13 weeks): 280 mg/kg-day
LC50 [9]: 248 mg/kg
LC50 [10]: 16.9 µg/mL (≈ 103 µM)

SMILES: Cl.Cl.[Cu+2].[NH-][C@@H](CCCCN)C(=O)[O-].[NH-][C@@H](CCCCN)C(=O)[O-] [L-Lysine, copper complex]
NOAEL ([4]; duration: 12 weeks, oral, M, clinical chemistry): 10 mg/day

SMILES: CC(C)(C)c1cc(O)ccc1O [tert-Butylhydroquinone]
NOAEL ([5]; duration: 117 weeks): 72 mg/kg-day

LEL ([4]; duration: 4 weeks, oral, F): 40 mg/kg-day
SMILES: [Cl-].[K+] [Potassium chloride]

LEL ([3]; subchronic, duration: 35 days, M, Chicken, no effects): 120 mg/kg-day
SMILES: CSCCC(N)C(=O)[O-].O=S(=O)([O-])O.[Zn+2] (stereo unspecified)

SMILES: CCOCCC(OCC)OCC [1,1,3-Triethoxypropane]
LOAEL (repeat dose other): 9.5 mg/kg-day
LOAEL ([6]; subchronic, M, hematological): 69 mg/kg-day

SMILES: CC12CCC(CC1)C(C)(C)O2 [1,8-Cineol]
NOAEL ([11]; short-term, duration: 28 days, capsule, M/F, other): 562 mg/kg-day

SMILES: C[C@@H]1O[C@H](O[C@H]2[C@H](O[C@H]3[C@@H](OC[C@H]4O[C@@H](O[C@@H]([C@H](O)[C@@H](O)CO)[C@H](O)CO)[C@H](O)[C@@H](O)[C@@H]4O[C@@H]4O[C@H](CO[C@H]5OC[C@@H](O)[C@H](O)[C@H]5O)[C@@H](O)[C@H](O)[C@H]4O)OC[C@@H](O)[C@@H]3O)O[C@H](CO)[C@H](O)[C@@H]2O)[C@@H](O)[C@H](O)[C@@H]1O
LD50 [6]: > 5000 mg/kg-day
LD50 ([1]; oral, unspecified): > 100 µg/piece

SMILES: CC(=NC#N)N(C)Cc1ccc(Cl)nc1 [Acetamiprid]
NOAEL ([6]; reproduction developmental, duration: 16 days, gavage, F, other): 2.5 mg/kg-day

SMILES: CCCCCC1C(=O)CCC1CC(=O)OC (stereo unspecified) [Methyl dihydrojasmonate]
NOAEL ([6]; subchronic, duration: 90 days, diet, M/F, Sprague-Dawley, no effects): 100 mg/kg-day

SMILES: CCCCCCC(C=O)=Cc1ccccc1 [2-(Phenylmethylene)octanal]
LC50 (acute, mortality): 0.2 µg/mL (≈ 0.925 µM)
NOAEL ([6]; chronic, duration: 14 weeks, diet, M/F, organ weight): 30 mg/kg-day

SMILES: C=C(/C=C\C[C@@H](O)[C@@H](O)[C@H](O)C/C=C/C=C\[C@@H](O)C[C@@H]1O[C@H](C[C@@H](O)[C@H](O)C[C@H]2O[C@H]([C@H](O)[C@H](O)CC[C@H](O)/C=C/[C@H](C)[C@@H](O)C[C@]3(O)O[C@H](C[C@@H](O)CCCCCCC[C@@]45C[C@@H](C)C[C@@](C)(O4)[C@@H](C[C@@H](C)CCCCC[C@@H](O)[C@H](O)[C@H](O)[C@@H](O)[C@H](O)[C@H]4O[C@H](C[C@H](O)[C@H](O)/C(C)=C/[C@H](O)C[C@@H](C)[C@H](O)C(=O)N/C=C/C(=O)NCCCO)[C@H](O)[C@@H](O)[C@@H]4O)O5)[C@H](O)[C@@H](O)[C@H]3O)C[C@@H](O)[C@@H]2O)[C@@H](O)[C@H](O)[C@H]1O)CC[C@H](O)[C@@H](O)[C@H](O)[C@H](C)C[C@H]1O[C@H](/C=C\[C@@H](O)[C@H](O)C[C@@H]2C[C@@H]3C[C@H](O2)[C@@H](CC[C@H]2O[C@H](CN)C[C@H]2O)O3)[C@@H](O)[C@H](O)[C@H]1O [Palytoxin]
LOAEL ([11]; acute, gavage, M, ICR, clinical signs): 0.2 mg/kg-day
